The results in this text go back to patent publication US11866429B2, “Heteroaryl-biphenyl amines for the treatment of PD-L1 diseases” (CHEMOCENTRYX, INC., priority 2019, dated 2024).

One may read the IC50 as the point on the concentration scale where inhibition reaches its midpoint. The low end stands for inhibition by little substance, the high end for a need for much substance.

The structures appear in SMILES notation. Where only a bound is given, the exact number is not on record here.

The target of this experiment is human PD-L1 (Homo sapiens (Human), UniProt Q9NZQ7). The experiment is described as follows: Enzyme-Linked Immunosorbent Assay (ELISA), PD-1/PD-L1 binding. As to conditions: plates coated with human PD-L1; Human PD-1 and biotin added; absorbance at 450 nm. As to the method: 96 Well plates were coated with 1 μg/mL of human PD-L1 (obtained from R&D) in PBS overnight at 4° C. The wells were then blocked with 2% BSA in PBS (W/V) with 0.05% TWEEN-20 for 1 hour at 37° C. The plates were washed 3 times with PBS/0.05% TWEEN-20 and the compounds were serial diluted (1:5) in dilution medium and added to the ELISA plates. Human PD-1 and biotin 0.3 μg/mL (ACRO Biosystems) were added and incubated for 1 hour at 37° C. then washed 3 times with PBS/0.05% TWEEN-20. A second block was performed with 2% BSA in PBS (W/V)/0.05% TWEEN-20 for 10 min at 37° C. and the plates were washed 3 times with PBS/0.05% TWEEN-20. Streptavidin-HRP was added for 1 hour at 37° C. then the plates were washed 3 times with PBS/0.05% TWEEN-20. TMB substrate was added and reacted for 20 min at 37° C. A stop solution (2 N aqueous […]) was added. The absorbance was read at 450 nm using a micro-plate spectrophotometer.
In general terms: An ELISA detects its analyte on a solid surface through an enzyme-linked reagent.

Chain of human PD-L1 (Q9NZQ7 19-239): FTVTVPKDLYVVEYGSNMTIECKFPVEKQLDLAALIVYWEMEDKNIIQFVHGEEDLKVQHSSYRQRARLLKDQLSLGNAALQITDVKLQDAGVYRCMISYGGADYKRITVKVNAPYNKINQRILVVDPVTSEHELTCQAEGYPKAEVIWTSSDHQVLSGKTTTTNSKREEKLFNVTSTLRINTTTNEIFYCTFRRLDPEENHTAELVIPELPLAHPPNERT

Turning to `COc1nc(-c2cccc(-c3cccc(Nc4nccc5nccnc45)c3Cl)c2Cl)cnc1CN[C@@H]1CCOC[C@@H]1O` [Compound 1.001], the half-maximal inhibitory concentration (IC50) is below 10 nM.

Compound `COc1nc(-c2cccc(-c3cccc(Nc4nccc5nccnc45)c3Cl)c2Cl)cnc1CN1CC(C(=O)O)C1` [Compound 1.002] showed an IC50 below 10 nM.

Regarding `COc1nc(-c2cccc(-c3cccc(Nc4nccc5nccnc45)c3Cl)c2Cl)cnc1CN1CC(C)(C(=O)O)C1` [Compound 1.003], the IC50 is below 10 nM.

With `COc1nc(-c2cccc(-c3cccc(Nc4nccc5nccnc45)c3Cl)c2Cl)cnc1CNC[C@@H]1CCC(=O)N1` [Compound 1.004], the half-maximal inhibitory concentration (IC50) was below 10 nM.

`COc1nc(-c2cccc(-c3cccc(Nc4nc(C)nc5cccnc45)c3C)c2Cl)cnc1CNCC1(O)CC1` [Compound 1.005]: the 50% inhibitory concentration (IC50) is below 10 nM.

Regarding `COc1nc(-c2cccc(-c3cccc(Nc4nc(C)nc5cccnc45)c3C)c2Cl)cnc1CNCCCO` [Compound 1.006], the half-inhibitory concentration (IC50) is below 10 nM.

The compound `COc1nc(-c2cccc(-c3cccc(Nc4nc(C)nc5cccnc45)c3C)c2Cl)ccc1CN1CC(C)(O)C1` [Compound 1.007] returned an IC50 below 10 nM.

For `COc1nc(-c2cccc(-c3cccc(Nc4nc(C)nc5cccnc45)c3C)c2Cl)ccc1CN1CC2(CNC(=O)N2)C1` [Compound 1.008], the concentration for half-maximal inhibition (IC50) is below 10 nM.

Take `COc1nc(-c2cccc(-c3cccc(Nc4nc(C)nc5cccnc45)c3Cl)c2F)ccc1CN[C@@H]1CCOC[C@@H]1O` [Compound 1.009]: the IC50 was below 10 nM.

The compound `COc1nc(-c2cccc(-c3cccc(Nc4nc(C)nc5cccnc45)c3C)c2C#N)ccc1CN[C@@H]1CCOC[C@@H]1O` [Compound 1.010] returned an IC50 below 10 nM.

On to `COc1nc(-c2cccc(-c3cccc(Nc4nc(C)nc5cccnc45)c3Cl)c2F)ccc1CNC[C@@H]1CCC(=O)N1` [Compound 1.011], for which the IC50 was below 10 nM.

In the case of `COc1nc(-c2cccc(-c3cccc(Nc4nc(C)nc5cccnc45)c3C)c2F)ccc1CN[C@@H]1CCOC[C@@H]1O` [Compound 1.012], the IC50 was below 10 nM.

For `COc1nc(-c2cccc(-c3cccc(Nc4nc(C)nc5cccnc45)c3C)c2F)ccc1CNC[C@@H]1CCC(=O)N1` [Compound 1.013], the IC50 was below 10 nM.

`CCOc1nc(-c2cccc(-c3cccc(Nc4nc(C)nc5cccnc45)c3C)c2Cl)ccc1CNC[C@@H]1CCC(=O)N1` [Compound 1.014] came in with an IC50 below 10 nM.

`COc1nc(-c2cccc(-c3cccc(Nc4nc(C)nc5cccnc45)c3C)c2Cl)ccc1CNCC(C)(C)C(N)=O` [Compound 1.015] showed a half-maximal inhibitory concentration (IC50) below 10 nM.

With `COc1nc(-c2cccc(-c3cccc(Nc4nc(C)nc5cccnc45)c3C)c2Cl)ccc1CNC[C@H](O)CC(=O)O` [Compound 1.016], the IC50 was below 10 nM.

For `COc1nc(-c2cccc(-c3cccc(Nc4nc(C)nc5cccnc45)c3C)c2Cl)ccc1CNC1CNC1` [Compound 1.017], the IC50 was below 10 nM.

`COc1nc(-c2cccc(-c3cccc(Nc4nc(C)nc5cccnc45)c3C)c2Cl)ccc1CN[C@H]1CC[C@@H]1O` [Compound 1.018] registered an IC50 below 10 nM.

In turn, `COc1nc(-c2cccc(-c3cccc(Nc4nc(C)nc5cccnc45)c3C)c2Cl)ccc1CNC1CCNCC1` [Compound 1.019] displayed an IC50 below 10 nM.

The compound `Cc1nc(Nc2cccc(-c3cccc(-c4ccc(CNC[C@@H]5CCC(=O)N5)c(C(F)(F)F)n4)c3Cl)c2C)c2ncccc2n1` [Compound 1.020] yielded a half-inhibitory concentration (IC50) below 10 nM.

`COc1nc(-c2cccc(-c3cccc(Nc4nc(C)nc5cccnc45)c3C)c2Cl)ccc1CN(C)CCO` [Compound 1.021] registered an IC50 below 10 nM.

Compound `COc1nc(-c2cccc(-c3cccc(Nc4nc(C)nc5cccnc45)c3C)c2Cl)ccc1CN1CCC[C@@H](C(=O)O)C1` [Compound 1.022] yielded a half-inhibitory concentration (IC50) below 10 nM.

`COc1nc(-c2cccc(-c3cccc(Nc4nc(C)nc5cccnc45)c3C)c2Cl)ccc1CN[C@H]1CCC(=O)NC1` [Compound 1.023] displayed an IC50 below 10 nM.

As for `COc1nc(-c2cccc(-c3cccc(Nc4nc(C)nc5cccnc45)c3C)c2Cl)ccc1CN[C@H]1CNC(=O)C1` [Compound 1.024], the concentration for half-maximal inhibition (IC50) is below 10 nM.

The compound `COc1nc(-c2cccc(-c3cccc(Nc4nc(C)nc5cccnc45)c3C)c2Cl)ccc1CNCc1ncc[nH]1` [Compound 1.025] returned a concentration for half-maximal inhibition (IC50) below 10 nM.

`COc1nc(-c2cccc(-c3cccc(Nc4nc(C)nc5cccnc45)c3C)c2Cl)ccc1CNC[C@H]1CCC(=O)N1` [Compound 1.026] returned an IC50 below 10 nM.

`COc1nc(-c2cccc(-c3cccc(Nc4nc(C)nc5cccnc45)c3C)c2Cl)ccc1CNC[C@H](O)CO` [Compound 1.027]: the half-maximal inhibitory concentration (IC50) was below 10 nM.

As to `COc1nc(-c2cccc(-c3cccc(Nc4nc(C)nc5cccnc45)c3C)c2Cl)ccc1CNC(C)C` [Compound 1.029], the IC50 is below 10 nM.

Regarding `COc1nc(-c2cccc(-c3cccc(Nc4nc(C)nc5cccnc45)c3C)c2Cl)ccc1CNC(C)(C)C(=O)O` [Compound 1.030], the half-inhibitory concentration (IC50) was below 10 nM.

`COc1nc(-c2cccc(-c3cccc(Nc4nc(C)nc5cccnc45)c3C)c2Cl)ccc1CNCC(=O)O` [Compound 1.031]: the 50% inhibitory concentration (IC50) is below 10 nM.

On to `COc1nc(-c2cccc(-c3cccc(Nc4nc(C)nc5cccnc45)c3C)c2Cl)ccc1CNCCn1ccnc1` [Compound 1.032], for which the IC50 was below 10 nM.

For the compound `COc1nc(-c2cccc(-c3cccc(Nc4nc(C)nc5cccnc45)c3C)c2Cl)ccc1CN1CC[C@@](C)(C(=O)O)C1` [Compound 1.033], the IC50 is below 10 nM.

In turn, `COc1nc(-c2cccc(-c3cccc(Nc4nc(C)nc5cccnc45)c3C)c2Cl)ccc1CN1CC[C@@](C)(O)C1` [Compound 1.034] had an IC50 below 10 nM.

As to `COc1nc(-c2cccc(-c3cccc(Nc4nc(C)nc5cccnc45)c3C)c2Cl)ccc1CNC[C@@H](O)CC(=O)O` [Compound 1.035], the IC50 is below 10 nM.

In turn, `COc1nc(-c2cccc(-c3cccc(Nc4nc(C)nc5cccnc45)c3C)c2Cl)ccc1CN1CCCC[C@H]1C(=O)O` [Compound 1.036] showed a half-inhibitory concentration (IC50) below 10 nM.

In the case of `COc1nc(-c2cccc(-c3cccc(Nc4nc(C)nc5cccnc45)c3C)c2Cl)ccc1CN1CC2(CCNC2=O)C1` [Compound 1.037], the IC50 was below 10 nM.

The compound `CNCc1ccc(-c2cccc(-c3cccc(Nc4nc(C)nc5cccnc45)c3C)c2Cl)nc1OC` [Compound 1.038] returned a concentration for half-maximal inhibition (IC50) below 10 nM.

In turn, `COc1nc(-c2cccc(-c3cccc(Nc4nc(C)nc5cccnc45)c3C)c2Cl)ccc1CN1CC[C@@H](O)C1` [Compound 1.040] came in with a half-inhibitory concentration (IC50) below 10 nM.

Compound `COc1nc(-c2cccc(-c3cccc(Nc4nc(C)nc5cccnc45)c3C)c2Cl)ccc1CNCC(N)=O` [Compound 1.041] gave an IC50 below 10 nM.

On to `COc1nc(-c2cccc(-c3cccc(Nc4nc(C)nc5cccnc45)c3C)c2Cl)ccc1CN(C)[C@@H]1CCOC[C@@H]1O` [Compound 1.042], for which the 50% inhibitory concentration (IC50) is below 10 nM.

The compound `COc1nc(-c2cccc(-c3cccc(Nc4nc(C)nc5cccnc45)c3C)c2Cl)ccc1CN1CCC(O)CC1` [Compound 1.043] gave an IC50 below 10 nM.

The compound `COc1nc(-c2cccc(-c3cccc(Nc4nc(C)nc5cccnc45)c3C)c2Cl)ccc1CN1CC[C@@H](C(=O)O)C1` [Compound 1.044] returned a concentration for half-maximal inhibition (IC50) below 10 nM.

Regarding `CCc1nc(-c2cccc(-c3cccc(Nc4nc(C)nc5cccnc45)c3C)c2Cl)ccc1CN[C@@H]1CCOC[C@@H]1O` [Compound 1.045], the IC50 is below 10 nM.

In turn, `CCc1nc(-c2cccc(-c3cccc(Nc4nc(C)nc5cccnc45)c3C)c2Cl)ccc1CNC[C@@H]1CCC(=O)N1` [Compound 1.046] showed a concentration for half-maximal inhibition (IC50) below 10 nM.

The compound `COc1nc(-c2cccc(-c3cccc(Nc4nc(C)nc5cccnc45)c3C)c2Cl)ccc1CN[C@H]1CCOC[C@H]1O` [Compound 1.047] showed a concentration for half-maximal inhibition (IC50) below 10 nM.

For the compound `Cc1nc(Nc2cccc(-c3cccc(-c4ccc(CNC[C@@H]5CCC(=O)N5)c(C)n4)c3Cl)c2C)c2ncccc2n1` [Compound 1.048], the IC50 was below 10 nM.

Consider `COc1nc(-c2cccc(-c3cccc(Nc4nc(C)nc5cccnc45)c3C)c2Cl)ccc1CN1CCOCC1` [Compound 1.049], for which the IC50 was below 10 nM.

Turning to `COc1nc(-c2cccc(-c3cccc(Nc4nc(C)nc5cccnc45)c3C)c2Cl)ccc1CNC(C)(C)CCO` [Compound 1.050], the IC50 is below 10 nM.

In turn, `COc1nc(-c2cccc(-c3cccc(Nc4nc(C)nc5cccnc45)c3C)c2Cl)ccc1CNCC(C)(C)CO` [Compound 1.051] showed a concentration for half-maximal inhibition (IC50) below 10 nM.

`COc1nc(-c2cccc(-c3cccc(Nc4nc(C)nc5cccnc45)c3C)c2Cl)ccc1CNC1CCOCC1` [Compound 1.052] came in with a 50% inhibitory concentration (IC50) below 10 nM.

`COc1nc(-c2cccc(-c3cccc(Nc4nc(C)nc5cccnc45)c3C)c2Cl)ccc1CN1CC2(CCC(=O)N2)C1` [Compound 1.053] came in with a 50% inhibitory concentration (IC50) below 10 nM.

Regarding `COc1nc(-c2cccc(-c3cccc(Nc4nc(C)nc5cccnc45)c3C)c2Cl)ccc1CN[C@@H]1CCC(=O)NC1` [Compound 1.054], the concentration for half-maximal inhibition (IC50) is below 10 nM.

As for `COc1nc(-c2cccc(-c3cccc(Nc4nc(C)nc5cccnc45)c3C)c2Cl)ccc1CN[C@@H]1CNC(=O)C1` [Compound 1.055], the IC50 is below 10 nM.

With `COc1nc(-c2cccc(-c3cccc(Nc4nc(C)nc5cccnc45)c3C)c2Cl)ccc1CNC(CO)CO` [Compound 1.056], the IC50 was below 10 nM.

With `COc1nc(-c2cccc(-c3cccc(Nc4nc(C)nc5cccnc45)c3C)c2Cl)ccc1CNCCO` [Compound 1.057], the half-inhibitory concentration (IC50) is below 10 nM.

Compound `COc1nc(-c2cccc(-c3cccc(Nc4nc(C)nc5cccnc45)c3C)c2Cl)ccc1CN1CC(O)C1` [Compound 1.058] registered an IC50 below 10 nM.
